In ChEMBL document CHEMBL1157539, “Thousands of chemical starting points for antimalarial lead identification” (Nature, 2010):

System: Plasmodium falciparum
Test: GSK_TCMDC: Inhibition of Plasmodium falciparum 3D7 in whole erythrocytes, using parasite LDH activity as an index of growth.
Type: functional, organism-based

Compound | XC50 (Plasmodium falciparum, 3D7) [nM] | XC50 [nM]
Cn1nccc1C(=O)NCCNCc1ccc(-c2cccc(-c3nc4cc(F)ccc4[nH]3)c2)cc1 | 218 | 
Cc1nc2sccn2c1C(=O)NCCc1ccccc1Cl | 800 | 
Cc1cc(N2CCOCC2)nc2ccc(NC(=O)c3ccc(Cl)c([N+](=O)[O-])c3)cc12 | 1030 | 
Cc1nc(N2CCC(C)CC2)c2c3c(sc2n1)CCCC3 | 1060 | 
Nc1ccn([C@@H]2O[C@H](COC(c3ccccc3)(c3ccccc3)c3ccccc3)[C@@H](O)[C@@H]2O)c(=O)n1 | 834 | 
CCCNCc1ccc(-c2ccc(CN(CCOC)C(=O)c3cnc(C)cn3)cc2)nc1 | 1250 | 
CCOCCCn1c(=N)c(C(=O)NCc2ccc(F)cc2)cc2c(=O)n3cccc(C)c3nc21 | 526 | 
COc1ccc2[nH]ccc(=NN=Cc3ccc(Cl)cc3)c2c1 | 211 | 
CC(=O)Nc1cccc(C(=O)Nc2ccc(-c3cccc(-c4nc5cc(C(F)(F)F)ccc5[nH]4)c3)cc2)c1 | 148 | 
Cc1cccc(CC2CC(=O)N(c3ccc([N+](=O)[O-])cc3)C2=O)c1 (stereo not drawn) | 200 | 
Nc1nccc2ccc(-c3ccsc3)cc12 | 332 | 
Cc1cccc(Nc2nc(NCCCCN)nc3cc[nH]c(=O)c23)c1 | 733 | 
CN(CCN)Cc1ccc(-c2ccc(-c3nc4cc(C(F)(F)F)ccc4[nH]3)s2)cc1 | 607 | 
Oc1ccccc1CNCC(O)c1cccc(C(F)(F)F)c1 (stereo not drawn) | 526 | 
N#Cc1ccc(N/C(=N\c2cccc(Cl)c2Cl)NC2Cc3ccccc3C2)c(O)c1 | 832 | 
Cn1c(Nc2cc(C(C)(C)C)on2)nc2cc(Nc3ccnc(Nc4ccc(CS(C)(=O)=O)cc4)n3)ccc21 | 977 | 
c1ccc(COc2ccc(Cn3ccc(-c4ccc(-n5ccnc5)cc4)n3)cc2)cc1.c1ccc(COc2ccc(Cn3nccc3-c3ccc(-n4ccnc4)cc3)cc2)cc1 | 1020 | 
CC(C)(CNCc1cccc(Oc2cccc(C(F)(F)F)c2)c1)c1nc(-c2ccnc(N)n2)c(-c2ccc(Cl)c(O)c2)[nH]1 | 193 | 
CCN(CC)CCCN1CCN(C(=O)c2cccc(-c3noc(C(F)(F)F)n3)c2)CC1 | 154 | 
CC[C@H](C)CNC(=O)c1cncc(-c2cccc(CN(C)C3CCN(C)CC3)c2)c1 | 785 | 
COc1ccc(CNC2CCCC2)cc1-c1ccc(S(=O)(=O)NCCN2CCCC2)s1 | 798 | 
Cc1cc(OC(C)C(=O)N2CCc3ccccc32)ccc1Cl (stereo not drawn) | 785 | 
CC1(C)CN(CCC2CCC(NC(=O)/C=C/c3ccc(F)cc3F)CC2)Cc2ccc(C#N)cc21 (stereo not drawn) | 787 | 
COc1ccc(NC(=O)NC2CCN(CCCCCNC(=O)/C=C/c3ccc(Cl)c(Cl)c3)C2)c(OC)c1 (stereo not drawn) | 823 | 
c1cc(-c2nc3ccccc3[nH]2)nc(-c2nc3ccccc3[nH]2)c1 | 1120 | 

Compound | XC50 (Plasmodium falciparum, 3D7) [nM] | XC50 [nM]
Cc1cccc2[nH]c(-c3cc(-c4cccc(Cl)c4)cnc3N)nc12 | 124 | 
Cc1cc(N[C@@H](Cc2ccccc2)C(=O)NCCOc2ccccc2)nc(NCCOc2ccccc2)n1 | 1360 | 
CCC(CC(NCCCCNC(=O)c1ccc(NC(=O)c2ccc(Cl)cc2)cc1)c1ccccc1)c1ccccc1OC (stereo not drawn) | 792 | 666
OC(CN1CCN(Cc2ccccc2)CC1)Cn1c(-c2ccccc2)c(-c2ccccc2)c2ccccc21 (stereo not drawn) | 711 | 
CCc1ccc(CN2CCC(CNC(=O)c3cc(-c4ccccc4Cl)cs3)C2)cc1 (stereo not drawn) | 1430 | 
CC(C)CCNC(=O)[C@@H]1[C@H]2C(=O)N(C3CCCCC3)C(=O)[C@H]2[C@H]2C=C[C@@H]3C(c4ccc(C(C)(C)C)cc4)=NO[C@@H]3N21 | 788 | 
Nc1nc(N)c2c(ccc3[nH]c(-c4ccccc4Cl)nc32)n1 | 231 | 
NCCCCc1c(-c2ccc(Cl)c(Cl)c2)[nH]c2ccc(Cl)cc12 | 912 | 
COc1cc2nc(N3CCN(c4nc(N)c5cc(OC)c(OC)cc5n4)CC3)nc(N)c2cc1OC | 146 | 
CCCCCN(C(=O)Nc1cc(C(F)(F)F)cc(C(F)(F)F)c1)C(C)c1nc2ccccc2c(=O)n1CC (stereo not drawn) | 787 | 
CC(C)N(CC(=O)c1ccc(O)c(C(=O)O)c1)Cc1ccccc1 | 187 | 
COc1cc2nc(N3CCC(CNC(=O)/C=C/c4cccc(C)c4)CC3)nc(N)c2cc1OC | 684 | 
O=C(Nc1ccc(Cl)cc1)Nc1cccc(-c2cccc(-c3nc4ccccc4[nH]3)c2)c1 | 131 | 
COc1ccc(-c2nc3c(N)nc(N)nc3nc2C(C)C)cc1 | 188 | 
COC(=O)c1ccc(CC(C)NCC(O)c2cccc(SC(F)(F)F)c2)cc1 (stereo not drawn) | 887 | 
Cc1cc(N[C@@H](CC(C)C)C(=O)NC2CCCC2)nc(NCC2CCCCC2)n1 | 858 | 
O=C(/C=C/c1ccc(Cl)c(Cl)c1)NCCCCCN1CCC(c2cn[nH]c2-c2ccccc2)CC1 | 1220 | 
CC(Cc1ccc(CSC(C)C)cc1)NCC(O)c1cccc(Cl)c1 (stereo not drawn) | 603 | 
Cc1cc(NCCC(=O)Nc2ccccc2)nc(NCCc2ccc(F)cc2)n1 | 1130 | 
Cc1ccc(C(=O)Nc2cccc(CN3CCCN(Cc4ccc(O)cc4)CC3)c2)s1 | 1000 | 
CCCn1c(=N)c(C(=O)NCCc2ccccc2)cc2c(=O)n3cccc(C)c3nc21 | 1120 | 
Cc1ccc(Nc2nc3cc(N(C)c4ccnc(Nc5cccc(CS(C)(=O)=O)c5)n4)ccc3o2)cc1 | 973 | 
CCCCNCc1ccc(OCc2cccc(COc3ccc(CNCCCC)cc3I)c2)c(I)c1 | 1120 | 
CC(O)C1CCCCN1C(=O)c1cccc(-c2ccc(-c3nc4cc(C(F)(F)F)ccc4[nH]3)cc2)c1 (stereo not drawn) | 690 | 
COc1ccc(C(=O)Nc2ccc3nc(N4CCCCC4)cc(C)c3c2)cc1[N+](=O)[O-] | 779 | 

Compound | XC50 (Plasmodium falciparum, 3D7) [nM] | XC50 [nM]
Cc1nn(-c2cccc(C(F)(F)F)c2)c2sc(C(=O)NC3CCN(C(C)C)CC3)cc12 | 898 | 
CCOC(=O)c1c(-c2ccccc2)nc2c(sc3ccccc32)c1O | 375 | 
CC(Cc1ccc(CN2CCN(Cc3ccccc3)CC2)cc1)NCC(O)c1cccc(C(F)(F)F)c1 (stereo not drawn) | 893 | 
CCN1CCC(N(Cc2ccc(-c3ccc(C(F)(F)F)cc3)cc2)C(=O)Cn2c(CCc3cccc(F)c3F)cc(=O)c3ccccc32)C1 (stereo not drawn) | 1010 | 
Cc1ccc2nc3sc(C(=O)NCCCN4CCC(N5CCCCC5)CC4)cc3cc2c1 | 675 | 
CCc1ccc(N2C(N)=NC(N)=NC2(C)C)cc1 | 8.82 | 
O=C(Nc1ccsc1C(=O)NC1CCCCC1)c1ccc(F)cc1 | 1210 | 
CNC(=N)c1ccc(NC(=O)Nc2ccc(C(=N)NC)cc2)cc1 | 577 | 
c1cc(CNC2Cc3ccc(-c4cccs4)cc3C2)cc(-n2ccnc2)c1 (stereo not drawn) | 594 | 
Cc1nc(-c2cccc(NC(C)C(=O)Nc3cc(C(F)(F)F)ccc3N3CCOCC3)c2)cs1 (stereo not drawn) | 241 | 
Nc1ccc(-c2ccc(NC(=O)Nc3cc(C(F)(F)F)ccc3F)cc2)cn1 | 657 | 
C=CCc1cc(Br)ccc1OCCCOc1c(C)nc(N)nc1N | 3.2 | 
CN(C)c1ccc(-c2csc(C(=O)NC3CCN(Cc4ccc(C(C)(C)C)cc4)C3)c2)cc1 (stereo not drawn) | 947 | 
COc1ccc2c(CCNc3nc(SC)ncc3C(=O)NCCc3ccc(F)cc3)c[nH]c2c1 | 762 | 
O=C(NC1CCCC1)c1cc2c(=O)n3ccccc3nc2[nH]/c1=N/CCc1ccccc1 | 649 | 
O=C(/C=C/c1ccc(Cl)c(Cl)c1)NCCCCCN1CCC(NC(=O)Nc2cc(Cl)ccc2Cl)CC1 | 433 | 
Cc1nc(-c2cccc(C(=O)Nc3cnc4ccccc4c3)c2)no1 | 1160 | 
N#Cc1ccc2c(c1)CCN(CCC1CCC(NC(=O)c3cc4ccc(Cl)cc4[nH]3)CC1)C2 (stereo not drawn) | 700 | 
Cc1cc(C2CCN(CCCCNC(=O)c3ccc(-c4ccc(C(F)(F)F)cc4)cc3)CC2)c(C)cc1OCC(N)=O | 805 | 
O=C(NC1CCN(CCC[C@]2(c3ccc(Cl)c(Cl)c3)CCCN(C(=O)c3ccccc3)C2)CC1)c1ccc(Cl)cc1 | 899 | 
C=C(C)CSc1nc2c(c(=O)n1Cc1ccco1)C1(CCCCC1)Cc1ccccc1-2 | 997 | 
O=C(Nc1ccc(C(F)(F)F)cc1)Nc1ccccc1N1CCNCC1 | 500 | 
CC(=O)Nc1ccc(OCCCN(Cc2ccccc2C(F)(F)F)c2ccc(C(F)(F)F)c(C#N)c2)c(Cl)c1 | 1450 | 
CN(C)Cc1cccc(-c2ccc(Nc3nccc(NCC(O)c4ccccc4)n3)cc2)c1 (stereo not drawn) | 136 | 
CN(C)CCOc1ccc(-c2cc(-c3ccncc3)c(-c3ccc(Cl)c(O)c3)o2)cc1 | 214 | 

Compound | XC50 (Plasmodium falciparum, 3D7) [nM] | XC50 [nM]
COc1cc(Nc2ncnc3cc(OC)c(OC)cc23)cc([N+](=O)[O-])c1 | 810 | 
O=C(O)CCc1ccc(-c2c[nH]c3ncc(-c4ccc5ncccc5c4)cc23)cc1 | 302 | 
OCC1CCN(Cc2cccc(-c3ccc(-c4nc5cc(C(F)(F)F)ccc5[nH]4)s3)c2)CC1 | 588 | 
Cc1nnc(-c2ccc3ccccc3c2)c2cn(-c3cccc([N+](=O)[O-])c3)nc12 | 988 | 
Nc1nc(N)c2c(ccc3c2ccn3Cc2ccc(Br)cc2)n1 | 3.2 | 
CC(C)CN(C)c1ncnc2c1nc(-c1cncc(C#N)c1)n2CCNCc1ccccc1 | 1360 | 
Nc1ncc(-c2cccc(CCN3CCOCC3)c2)cc1-c1nc2cc(Br)ccc2[nH]1 | 277 | 
O=C(NC1CCC(CCN2Cc3cccc(C(F)(F)F)c3C2)CC1)c1cccc(-c2cccnc2)c1 (stereo not drawn) | 1020 | 
Cc1onc(-c2ccccc2Cl)c1C(=O)Nc1cc(Cl)c(Cl)cc1Cl | 1180 | 
COc1cc(NC(=O)C(c2ccc(Cl)cc2)C(C)C)cc(OC)c1OC (stereo not drawn) | 534 | 
Fc1cc(Cl)ccc1Nc1ccnc2cc(-c3ccc(CN4CCSCC4)o3)ccc12 | 782 | 
C[C@@H](NC(=O)c1nn(-c2ccc(Cl)cc2)c(=O)c2ccccc12)C(C)(C)C | 1120 | 
COc1ccc2ncc(F)c(CCN3CC(O)C(CNCc4ccc5c(c4)OCCO5)C3)c2n1 (stereo not drawn) | 927 | 
CCOc1ccc(NC(=O)c2ccc(CN3CCCN(Cc4cccc(O)c4)CC3)cc2)cc1 | 1310 | 
CCOc1cccc(C(=O)Nc2ccc(-c3nc4ccccc4[nH]3)cc2)c1 | 1010 | 
CCCCCCNC(=N)c1ccc(OCCCCCOc2ccc(C(=N)NCCCCCC)cc2)cc1 | 309 | 
CN1CCN(c2cc(NC(=O)c3ccc(-c4ccc(Cl)cc4)cc3)ccc2Cl)CC1 | 613 | 
CN(C)CCNC(=O)[C@H](Cc1ccccc1)NC(=O)c1ccc(O)c(-c2ccc(Cl)c(Cl)c2)c1 | 715 | 
Cc1cnc(C(=O)Nc2cccc(-c3ccc(-c4nc5cc(C(F)(F)F)ccc5[nH]4)s3)c2)cn1 | 704 | 
COc1cccc(OC(C)(C)c2nc(N[C@@H](C)c3ccccc3)c3cn[nH]c3n2)c1 | 968 | 
CN1CCN(Cc2ccc(-c3cccc(-c4nc5ccccc5[nH]4)c3)cc2)CC1 | 1390 | 
COc1cccc(CN2CCCN(Cc3cccc(NC(=O)c4ccc(Cl)c(Cl)c4)c3)CC2)c1 | 1460 | 
